This is an account of results in patent US10882856B2 (BeiGene, Ltd., priority 2017, dated 2021).

Assay [1] addresses T1, IDO1 (Homo sapiens, UniProt P14902). Briefly: IDO1 enzymatic assay. On the set-up: His tag (N); made in house; host or cells: E. coli. The following applies: read-out: Enzyme IC50 IDO1. The format is biochemical. The method, boiled down: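 Recombinant N-terminally His-tagged IDO1 purified from E. coli (50 nM) was incubated with compound or DMSO and 1.3 mM D-tryptophan, 5 mM L-ascorbic acid, methylene blue and 0.4 mg/mL catalase. The buffer was 50 mM potassium phosphate pH 7.5 with 0.1% BSA, at 24 °C for 1.5 hours. N'-formylkynurenine formation was then read continuously at 321 nm for 1 hour, and activity was taken as the slope. IC50 was calculated from remaining enzyme activity across increasing compound concentrations.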

Assay [2] concerns the target T1, IDO1. Briefly: Hela cell-based IDO1 assay. The following applies: Hela cells. A digest of the protocol:
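Kynurenine was measured at 480 nm in trichloroacetic acid-deproteinised supernatant after adding 2% 4-(dimethylamino)benzaldehyde. This supernatant came from HeLa cells seeded at 8000 per well in 96-well plates in phenol red-free DMEM with 10% FBS and, from 4 hours after seeding, exposed for 48 hours at 37 °C, 5% CO2 to DMSO-diluted compound dilutions, IFN-γ (final 100 ng/mL) and 0.4 mM L-Trp. The resulting data were fitted with a four-parameter logistic model in XLfit. Potency was taken from those fits.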

Assay [3] has as its target T2, cellular TDO2 in HEK293-TDO2 cells (Homo sapiens, UniProt P48775).
T2 construct: expressed in transfected cells; host or cells: HEK293 (ATCC), stably transfected
In words: 293-TDO2 cell-based assay (Kyn colorimetric). The following applies: 48 hours of incubation. A digest of the protocol:
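HEK293 cells stably expressing TDO2 (10000/well, phenol red-free DMEM, 10% FBS) were dosed 4 h after plating and incubated 48 h at 37° C. Supernatant Kyn was measured after TCA precipitation by 4-(dimethylamino)benzaldehyde colour at 480 nm. IC50 came from four-parameter logistic fits.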

T1 sequence (P14902 whole entry): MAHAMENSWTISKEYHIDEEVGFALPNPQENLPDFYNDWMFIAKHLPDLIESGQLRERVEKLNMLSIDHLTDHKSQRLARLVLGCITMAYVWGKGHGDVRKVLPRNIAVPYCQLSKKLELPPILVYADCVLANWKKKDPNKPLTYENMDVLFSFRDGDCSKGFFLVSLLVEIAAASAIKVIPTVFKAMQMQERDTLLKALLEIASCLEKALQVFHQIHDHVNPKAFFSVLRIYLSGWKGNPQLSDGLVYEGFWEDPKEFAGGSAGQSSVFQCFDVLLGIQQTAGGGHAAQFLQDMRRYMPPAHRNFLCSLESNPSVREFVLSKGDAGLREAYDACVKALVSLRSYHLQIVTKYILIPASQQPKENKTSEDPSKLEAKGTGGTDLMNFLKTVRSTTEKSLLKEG
T2 sequence (P48775 whole entry): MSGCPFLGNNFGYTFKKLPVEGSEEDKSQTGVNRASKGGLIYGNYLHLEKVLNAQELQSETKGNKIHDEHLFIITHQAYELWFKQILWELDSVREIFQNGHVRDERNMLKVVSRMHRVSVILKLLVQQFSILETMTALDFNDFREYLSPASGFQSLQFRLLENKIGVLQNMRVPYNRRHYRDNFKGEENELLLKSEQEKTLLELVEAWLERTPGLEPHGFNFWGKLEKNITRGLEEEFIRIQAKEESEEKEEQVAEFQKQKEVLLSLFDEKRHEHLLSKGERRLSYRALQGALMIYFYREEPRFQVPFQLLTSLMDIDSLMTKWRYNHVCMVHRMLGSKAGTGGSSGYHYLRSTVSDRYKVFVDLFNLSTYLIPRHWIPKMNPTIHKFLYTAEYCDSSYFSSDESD

The IC50 is the concentration at which inhibition is half-maximal. A word on the EC50: it is the concentration giving half of the maximal effect. The low end stands for higher potency in that assay, the high end for lower potency in that assay. As to `O[C@@H](c1c(C2CC2)ccn2cncc12)[C@H]1CC[C@H](c2ccc(OC(F)(F)F)cc2)CC1` (single isomer, unassigned) [Example C105b], at IDO1 [1], the IC50 turned out to be 2 µM. For the same compound, the EC50 (on IDO1 [2]; in assay [3]) was more than 10 µM in each case.
Take `COc1ccc([C@H]2CC[C@H]([C@@H](O)c3c(C4CC4)ccc4cncn34)CC2)c(Cl)c1` (single isomer, unassigned) [Example D147b]: at IDO1 [1], the IC50 was more than 10 µM. Besides, the results for the EC50 (at IDO1 [2]; in assay [3]) were 4.5 µM and more than 10 µM, respectively.
Consider `Oc1ccccc1C1CCC(C(O)c2c(C3CC3)ccc3cncn23)CC1` (stereo not drawn) [Example D112, 2-(4-((6-cyclopropylimidazo[1,5-a]pyridin-5-yl)(hydroxy)methyl)cyclohexyl)phenol], for which the IC50 on IDO1 [1] was found to be 0.043 µM. Also, the EC50 at IDO1 [2] is 0.05 µM; in assay [3], more than 10 µM.
Consider `O[C@@H](c1c(C2CC2)ccc2cncn12)[C@H]1CC[C@H](c2ccccc2)CC1` (single isomer, unassigned) [Example D101b], for which the IC50 at IDO1 [1] was 1.3 µM. For the same compound, the EC50 is 6.14 µM on IDO1 [2] and more than 10 µM in assay [3].
As for `Cc1ccccc1C1CCC(C(O)c2c(C3CC3)ccn3cncc23)CC1` (stereo not drawn) [Example C112, (7-cyclopropylimidazo[1,5-a]pyridin-8-yl)(4-(o-tolyl)cyclohexyl)methanol], at IDO1 [1], the IC50 came to 0.092 µM. Moreover, the EC50 at IDO1 [2] was 0.285 µM; in assay [3] it was more than 10 µM.
With `O[C@H](c1c(C2CC2)ccn2cncc12)[C@H]1CC[C@H](c2ccnc3ccccc32)CC1` (single isomer, unassigned) [Example C130a], at IDO1 [1], the 50% inhibitory concentration (IC50) was 0.017 µM. For the same compound, the EC50 was 0.044 µM at IDO1 [2] and more than 10 µM in assay [3].
For `O[C@@H](c1c(C2CC2)ccc2cncn12)C1CCC(c2csc3ccccc23)CC1` (single isomer, unassigned) [Example D155b], on IDO1 [1], the IC50 turned out to be 9 µM. Further, the EC50 at IDO1 [2] is 5.63 µM; in assay [3], more than 10 µM.
As to `OC(c1c(C2CC2)ccc2cncn12)C1CCC(c2ccc(C(F)(F)F)nc2)CC1` (stereo not drawn) [Example D107, (6-cyclopropylimidazo[1,5-a]pyridin-5-yl)(4-(6-(trifluoromethyl)pyridin-3-yl)cyclohexyl)methanol], at IDO1 [1], the IC50 was 0.03 µM. The EC50 on IDO1 [2] is 1.48 µM; in assay [3] it was more than 10 µM.
The corresponding values for `OC(c1cc(C2CC2)cc2cncn12)C1CCC(c2ccc(Cl)cc2)CC1` (stereo not drawn) [Example E102, (4-(4-chlorophenyl)cyclohexyl)(7-cyclopropylimidazo[1,5-a]pyridin-5-yl)methanol] are 0.27 µM, 4.84 µM and more than 10 µM.
On to `CNC(=O)c1ccc(C2CCC(C(O)c3c(C4CC4)ccc4cncn34)CC2)cc1` (stereo not drawn) [Example D124, 4-(4-((6-cyclopropylimidazo[1,5-a]pyridin-5-yl)(hydroxy)methyl)cyclohexyl)-N-methylbenzamide], for which the IC50 at IDO1 [1] was found to be 0.022 µM. In addition, the values for the EC50 (on IDO1 [2]; in assay [3]) were 0.188 µM and more than 10 µM, respectively.
`COc1cccc([C@H]2CC[C@H]([C@@H](O)c3c(C4CC4)ccn4cncc34)CC2)c1` (single isomer, unassigned) [Example C114b]: at IDO1 [1], the IC50 was 4.7 µM. The EC50 (on IDO1 [2]; in assay [3]) was more than 10 µM each time.
As to `O[C@@H](c1c(C2CC2)ccc2cncn12)[C@H]1CC[C@H](c2ccc3ncccc3c2)CC1` (single isomer, unassigned) [Example D157b], the IC50 at IDO1 [1] was more than 10 µM. Also, the EC50 (on IDO1 [2]; in assay [3]) was more than 10 µM in each case.
With `O[C@@H](c1c(C2CC2)ccc2cncn12)[C@H]1CC[C@H](c2ccc(F)c3ccccc32)CC1` (single isomer, unassigned) [Example D137b], the IC50 on IDO1 [1] is 1.7 µM. Moreover, the EC50 on IDO1 [2] was 2.1 µM; in assay [3], more than 10 µM.
Turning to `Oc1ccc(C2CCC(C(O)c3c(C4CC4)ccn4cncc34)CC2)cc1` (racemic) [Example C104], the IC50 on IDO1 [1] came to 0.036 µM. Also, the EC50 at IDO1 [2] is 0.082 µM; in assay [3] it was more than 10 µM.
As for `OC(c1c(C2CC2)ccn2cncc12)C1CCN(c2ccc(Cl)c3ncccc23)CC1` (stereo not drawn) [Example C154, (1-(8-chloroquinolin-5-yl)piperidin-4-yl)(7-cyclopropylimidazo[1,5-a]pyridin-8-yl)methanol], on IDO1 [1], the IC50 amounted to 0.036 µM. For the same compound, the EC50 at IDO1 [2] was 0.049 µM; in assay [3], more than 10 µM.
On to `OC(c1c(C2CC2)ccn2cncc12)C1CCN(c2ccnc3ccccc23)CC1` (stereo not drawn) [Example C150, (7-cyclopropylimidazo[1,5-a]pyridin-8-yl)(1-(quinolin-4-yl)piperidin-4-yl)methanol], for which the IC50 at IDO1 [1] came out at 0.16 µM. The EC50 on IDO1 [2] was 1.51 µM; in assay [3], more than 10 µM.
As for `CC(C)c1ccc2cncn2c1[C@@H](O)[C@H]1CC[C@H](c2cccc(F)c2)CC1` (single isomer, unassigned) [Example D167a], the IC50 on IDO1 [1] turned out to be 0.018 µM. The EC50 at IDO1 [2] was 0.015 µM; in assay [3] it was more than 10 µM.
`OC(c1c(C2CC2)ccc2cncn12)C1CCC(c2ccc(F)c(Cl)c2)CC1` (stereo not drawn) [Example D129, (4-(3-chloro-4-fluorophenyl)cyclohexyl)(6-cyclopropylimidazo[1,5-a]pyridin-5-yl)methanol]: the IC50 on IDO1 [1] is 0.053 µM. For the same compound, the values for the EC50 (on IDO1 [2]; in assay [3]) were 0.148 µM and more than 10 µM, respectively.
Regarding `O[C@H](c1c(C2CC2)ccc2cncn12)[C@H]1CC[C@H](c2cc(F)cc(F)c2)CC1` (single isomer, unassigned) [Example D144a], the IC50 on IDO1 [1] worked out at 0.023 µM. Moreover, the EC50 on IDO1 [2] is 0.052 µM; in assay [3], more than 10 µM.
Turning to `O[C@@H](c1c(C2CC2)ccn2cncc12)[C@H]1CC[C@H](c2cccc(F)c2)CC1` (single isomer, unassigned) [Example C109b], on IDO1 [1], the IC50 is more than 10 µM. Also, the EC50 (on IDO1 [2]; in assay [3]) was more than 10 µM each time.
With `OC(c1c(C2CC2)ccc2cncn12)C1CCC(c2ccc3ccsc3c2)CC1` (stereo not drawn) [Example D134, (4-(benzo[b]thiophen-6-yl)cyclohexyl)(6-cyclopropylimidazo[1,5-a]pyridin-5-yl)methanol], on IDO1 [1], the IC50 was 0.061 µM. For the same compound, the EC50 at IDO1 [2] was 0.364 µM; in assay [3], more than 10 µM.
Consider `COc1ccc(C2CCC(C(O)c3c(C4CC4)ccn4cncc34)CC2)cc1` (racemic) [Example C101, (7-cyclopropylimidazo[1,5-a]pyridin-8-yl)(4-(4-methoxyphenyl)cyclohexyl)methanol], for which, on IDO1 [1], the IC50 turned out to be 0.041 µM. For the same compound, the EC50 is 0.2 µM at IDO1 [2] and more than 10 µM in assay [3].
For the compound `OC(c1c(C2CC2)ccn2cncc12)C1CCN(c2ccccc2)CC1` (single isomer, unassigned) [Example C136a], at IDO1 [1], the IC50 came to 0.021 µM. For the same compound, the results for the 50% effective concentration (EC50) (at IDO1 [2]; in assay [3]) were 0.047 µM and more than 10 µM, respectively.
On to `O[C@@H](c1c(C2CC2)ccn2cncc12)[C@H]1CC[C@H](c2ccccc2C(F)(F)F)CC1` (single isomer, unassigned) [Example C116b], for which the IC50 on IDO1 [1] was determined as 5.4 µM. Further, the EC50 (at IDO1 [2]; in assay [3]) was more than 10 µM in each case.
Regarding `COc1ccccc1C1CCC(C(O)c2c(C3CC3)ccc3cncn23)CC1` (stereo not drawn) [Example D113, (6-cyclopropylimidazo[1,5-a]pyridin-5-yl)(4-(2-methoxyphenyl)cyclohexyl)methanol], on IDO1 [1], the IC50 amounted to 0.043 µM. In addition, the EC50 on IDO1 [2] was 0.095 µM; in assay [3], more than 10 µM.
Consider `CN(C)C(=O)c1ccc([C@H]2CC[C@H]([C@H](O)c3c(C4CC4)ccc4cncn34)CC2)cc1` (single isomer, unassigned) [Example D125a], for which the IC50 at IDO1 [1] amounted to 0.014 µM. Also, the results for the EC50 (at IDO1 [2]; in assay [3]) were 0.46 µM and more than 10 µM, respectively.
For `OC(c1c(C2CC2)ccc2cncn12)C1CCC(c2ccc(-c3ccccc3)cc2)CC1` (stereo not drawn) [Example D119, (4-([1,1′-biphenyl]-4-yl)cyclohexyl)(6-cyclopropylimidazo[1,5-a]pyridin-5-yl)methanol], the IC50 at IDO1 [1] amounted to 0.064 µM. Also, the EC50 at IDO1 [2] was 0.668 µM; in assay [3], more than 10 µM.
In the case of `OC(c1c(C2CC2)ccc2cncn12)C1CCC(c2ccc(OC(F)(F)F)cc2)CC1` (stereo not drawn) [Example D105, (6-cyclopropylimidazo[1,5-a]pyridin-5-yl)(4-(4-trifluoromethoxy)phenylcyclohexyl)methanol], on IDO1 [1], the IC50 was determined as 0.076 µM. For the same compound, the results for the EC50 (at IDO1 [2]; in assay [3]) were 0.869 µM and more than 10 µM, respectively.
`OC(c1c(C2CC2)ccc2cncn12)C1CCC(c2cc3ccccc3s2)CC1` (stereo not drawn) [Example D154, (4-(benzo[b]thiophen-2-yl)cyclohexyl)(6-cyclopropylimidazo[1,5-a]pyridin-5-yl)methanol]: the IC50 on IDO1 [1] came out at 0.068 µM. Also, the EC50 on IDO1 [2] is 0.648 µM; in assay [3], more than 10 µM.
As to `Cc1cccc(C2CCC(C(O)c3c(C4CC4)ccn4cncc34)CC2)c1` (racemic) [Example C111, (7-cyclopropylimidazo[1,5-a]pyridin-8-yl)(4-(m-tolyl)cyclohexyl)methanol], the IC50 on IDO1 [1] is 0.082 µM. Also, the EC50 on IDO1 [2] is 0.2 µM; in assay [3], more than 10 µM.
